Results on six molecules are retold here after ChEMBL document CHEMBL1201862, “PubChem BioAssay data set” (2004).

Calls of active or inactive are those of the source. Bounds are passed on as bounds.

Assay [1] deals with Melanin-concentrating hormone receptor 1 (Homo sapiens, UniProt Q99705). Put plainly: Late-stage fluorescence-based counterscreen for antagonists of the G-protein coupled receptor 7 (GPR7): cell-based dose response assay to identify antagonists of the melanin-concentrating hormone receptor 1 (MCHR1) Set 5. The class given is functional.
The target in assay [2] is T1, Sentrin-specific protease 8 (Homo sapiens, UniProt Q96LD8).
T1 sequence (Q96LD8 whole entry): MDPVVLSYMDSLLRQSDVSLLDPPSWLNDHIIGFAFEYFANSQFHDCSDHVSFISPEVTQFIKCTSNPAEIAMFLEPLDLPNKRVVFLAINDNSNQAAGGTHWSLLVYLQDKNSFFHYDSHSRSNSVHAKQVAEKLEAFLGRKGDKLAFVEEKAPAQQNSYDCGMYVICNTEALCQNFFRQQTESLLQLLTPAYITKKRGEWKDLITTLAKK
Put plainly: SENP8 protease inhibitors, SAR follow-up, biochemical, luminescence (AID 504501). The class given is functional.

The target of a further assay is T2, Caspase-3 (Homo sapiens, UniProt P42574).
T2 sequence (P42574 whole entry): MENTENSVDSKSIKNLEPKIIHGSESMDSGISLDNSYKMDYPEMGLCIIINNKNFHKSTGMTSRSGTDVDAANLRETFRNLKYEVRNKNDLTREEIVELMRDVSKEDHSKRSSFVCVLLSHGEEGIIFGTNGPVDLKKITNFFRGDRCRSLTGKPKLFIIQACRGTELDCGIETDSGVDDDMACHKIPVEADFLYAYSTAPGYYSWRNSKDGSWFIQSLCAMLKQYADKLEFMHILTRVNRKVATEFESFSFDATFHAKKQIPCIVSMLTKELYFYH
Description: SAR Analysis of small molecule inhibitors of Sentrin-specific proteases (SENPs) using a Caspase-3 Selectivity assay. [Related pubchem assays (depositor defined):AID2540, AID2599, AID434973, AID489001]. Format: functional.

Assay [3] concerns the target T3, Sentrin-specific protease 6 (Homo sapiens, UniProt Q9GZR1).
T3 sequence (Q9GZR1 whole entry): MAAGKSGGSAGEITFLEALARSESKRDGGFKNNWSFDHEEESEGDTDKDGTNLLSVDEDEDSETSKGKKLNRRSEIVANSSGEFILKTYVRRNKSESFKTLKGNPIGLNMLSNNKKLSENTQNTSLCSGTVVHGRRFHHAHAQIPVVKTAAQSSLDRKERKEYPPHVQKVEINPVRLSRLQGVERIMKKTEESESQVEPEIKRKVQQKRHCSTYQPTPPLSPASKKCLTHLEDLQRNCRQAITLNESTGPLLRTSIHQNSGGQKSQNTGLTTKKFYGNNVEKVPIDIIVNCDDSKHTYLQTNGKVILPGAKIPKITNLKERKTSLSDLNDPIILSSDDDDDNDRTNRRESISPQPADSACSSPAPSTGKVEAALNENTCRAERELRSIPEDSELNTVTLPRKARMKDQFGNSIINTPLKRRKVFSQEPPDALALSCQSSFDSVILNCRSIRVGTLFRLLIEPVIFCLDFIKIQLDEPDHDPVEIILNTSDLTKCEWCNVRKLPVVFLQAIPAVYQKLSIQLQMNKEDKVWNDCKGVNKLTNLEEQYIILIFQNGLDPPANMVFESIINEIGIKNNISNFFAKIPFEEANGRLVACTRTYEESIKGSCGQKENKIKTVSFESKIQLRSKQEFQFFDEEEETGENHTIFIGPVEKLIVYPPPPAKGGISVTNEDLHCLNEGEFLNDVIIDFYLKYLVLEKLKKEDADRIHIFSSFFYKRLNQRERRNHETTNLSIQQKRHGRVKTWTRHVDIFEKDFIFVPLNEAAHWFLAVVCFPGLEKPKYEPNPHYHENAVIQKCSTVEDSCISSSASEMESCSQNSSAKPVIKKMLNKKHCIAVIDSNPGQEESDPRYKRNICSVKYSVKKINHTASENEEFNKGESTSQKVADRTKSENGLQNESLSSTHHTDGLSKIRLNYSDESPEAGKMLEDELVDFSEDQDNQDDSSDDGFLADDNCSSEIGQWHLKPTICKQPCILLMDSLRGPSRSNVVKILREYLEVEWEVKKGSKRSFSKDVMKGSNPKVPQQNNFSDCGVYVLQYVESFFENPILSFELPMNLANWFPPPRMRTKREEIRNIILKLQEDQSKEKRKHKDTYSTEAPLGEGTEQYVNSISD
Put plainly: SAR Analysis of small molecule inhibitors of Sentrin-specific protease 6 (SENP6) using a Luminescent assay. [Related pubchem assays (depositor defined):AID2582, AID2599]. The class given is functional.

Assay [4] has as its target T4, Sentrin-specific protease 7 (Homo sapiens, UniProt Q9BQF6).
T4 sequence (Q9BQF6 whole entry): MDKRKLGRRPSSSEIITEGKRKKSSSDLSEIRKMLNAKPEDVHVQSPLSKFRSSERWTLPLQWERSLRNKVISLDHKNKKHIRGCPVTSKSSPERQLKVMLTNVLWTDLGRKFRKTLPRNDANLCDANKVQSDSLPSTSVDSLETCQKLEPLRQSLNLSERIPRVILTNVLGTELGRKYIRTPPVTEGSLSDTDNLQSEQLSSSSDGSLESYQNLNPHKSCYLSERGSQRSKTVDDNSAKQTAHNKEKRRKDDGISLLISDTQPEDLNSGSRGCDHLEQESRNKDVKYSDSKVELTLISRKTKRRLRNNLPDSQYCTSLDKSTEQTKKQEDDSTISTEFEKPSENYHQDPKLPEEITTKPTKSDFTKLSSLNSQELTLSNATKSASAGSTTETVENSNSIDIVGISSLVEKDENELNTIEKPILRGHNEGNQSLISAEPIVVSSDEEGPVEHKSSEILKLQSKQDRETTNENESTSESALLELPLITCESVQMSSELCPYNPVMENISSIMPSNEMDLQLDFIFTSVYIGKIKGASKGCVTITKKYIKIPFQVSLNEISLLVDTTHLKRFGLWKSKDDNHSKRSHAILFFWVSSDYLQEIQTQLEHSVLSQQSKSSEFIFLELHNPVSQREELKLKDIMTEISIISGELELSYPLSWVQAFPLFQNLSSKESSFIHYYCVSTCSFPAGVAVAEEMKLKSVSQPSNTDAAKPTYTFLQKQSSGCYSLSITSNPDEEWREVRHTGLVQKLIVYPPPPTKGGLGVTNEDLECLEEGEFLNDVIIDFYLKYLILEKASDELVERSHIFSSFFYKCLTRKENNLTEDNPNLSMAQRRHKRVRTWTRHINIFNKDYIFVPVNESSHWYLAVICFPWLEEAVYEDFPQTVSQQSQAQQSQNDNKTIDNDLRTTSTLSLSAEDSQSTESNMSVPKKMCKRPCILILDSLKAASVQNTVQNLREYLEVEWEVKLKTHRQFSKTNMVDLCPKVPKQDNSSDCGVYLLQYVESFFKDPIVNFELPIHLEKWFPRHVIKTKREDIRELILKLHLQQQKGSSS
Description: SENP7 protease inhibitors, SAR follow-up, biochemical, luminescence (AID 504497). Format: functional.

A short description of assay [5]: cytotoxicity in HEK-293T cells, dose response, cytotoxicity control for BCR NF-kB inhibitor project, luminescence, B-cell screen hits (AID 489021).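 Note: HEK-293T cells carrying an NF-kB luciferase reporter; cells exposed to compound for about 14 hours before viability readout.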 Format: functional, cell-based.
Assay [6] has as its target T5, High affinity choline transporter 1 (Homo sapiens, UniProt Q9GZV3).
T5 sequence (Q9GZV3 whole entry): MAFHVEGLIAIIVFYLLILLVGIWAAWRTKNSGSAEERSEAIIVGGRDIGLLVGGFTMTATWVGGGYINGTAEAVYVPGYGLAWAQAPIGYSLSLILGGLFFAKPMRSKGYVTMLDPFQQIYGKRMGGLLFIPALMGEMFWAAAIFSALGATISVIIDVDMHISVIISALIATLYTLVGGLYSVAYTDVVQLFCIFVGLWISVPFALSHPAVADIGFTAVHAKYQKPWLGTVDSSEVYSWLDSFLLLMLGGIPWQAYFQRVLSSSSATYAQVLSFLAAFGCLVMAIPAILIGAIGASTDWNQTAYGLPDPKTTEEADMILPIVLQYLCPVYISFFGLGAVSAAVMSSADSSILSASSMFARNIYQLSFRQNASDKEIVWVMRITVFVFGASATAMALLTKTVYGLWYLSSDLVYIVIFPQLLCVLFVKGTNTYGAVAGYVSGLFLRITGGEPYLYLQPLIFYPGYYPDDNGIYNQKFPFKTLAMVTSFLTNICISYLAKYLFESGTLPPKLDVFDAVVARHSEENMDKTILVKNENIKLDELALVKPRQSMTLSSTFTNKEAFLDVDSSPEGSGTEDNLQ
Put plainly: CHT activators, dose response, cell-based, 10-point CRC, membrane potential dye (AID 602376). Format: functional.

Assay [7] addresses Luciferin 4-monooxygenase (Photinus pyralis, UniProt P08659). Put plainly: firefly luciferase enzyme inhibitors, dose response, biochemical, luminescence (AID 1891).
A short description of assay [8]: Luminescence Cell-Based Dose Confirmation HTS to Identify Inhibitors of Platelet Dense Granule Release. [Related pubchem assays: 1663 (Primary HTS), 1678 (Summary of Project)]. The class given is functional.
In the next assay the target is LIM domain kinase 1 (Homo sapiens, UniProt P53667). Description: Navigating the Kinome. Panel member name: LIMK1. The class given is functional.
For assay [9], the target named is Serine/threonine-protein kinase Chk1 (Homo sapiens, UniProt O14757). The class given is functional.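 Note: measured as one member of a kinome-wide kinase profiling panel.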
Assay [10] addresses T6, Serine/threonine-protein kinase Nek2 (Homo sapiens, UniProt P51955).
T6 sequence (P51955 whole entry): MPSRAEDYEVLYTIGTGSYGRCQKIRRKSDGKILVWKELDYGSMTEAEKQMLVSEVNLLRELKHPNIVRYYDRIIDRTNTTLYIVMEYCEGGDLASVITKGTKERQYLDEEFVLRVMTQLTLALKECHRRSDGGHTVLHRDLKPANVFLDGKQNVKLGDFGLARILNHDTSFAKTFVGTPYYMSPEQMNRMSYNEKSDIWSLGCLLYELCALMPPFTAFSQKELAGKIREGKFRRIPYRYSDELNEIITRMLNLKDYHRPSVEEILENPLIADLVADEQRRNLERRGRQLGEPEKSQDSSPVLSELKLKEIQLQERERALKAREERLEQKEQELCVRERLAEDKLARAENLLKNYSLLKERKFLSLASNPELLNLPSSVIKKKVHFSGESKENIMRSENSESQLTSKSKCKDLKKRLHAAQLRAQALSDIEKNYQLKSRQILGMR
The class given is functional.

Assay [11] has as its target Cyclin-dependent kinase 8 (Homo sapiens, UniProt P49336). Put plainly: Navigating the Kinome. Panel member name: CDK8. The class given is functional.

Chain of Serine/threonine-protein kinase Chk1 (O14757 whole entry): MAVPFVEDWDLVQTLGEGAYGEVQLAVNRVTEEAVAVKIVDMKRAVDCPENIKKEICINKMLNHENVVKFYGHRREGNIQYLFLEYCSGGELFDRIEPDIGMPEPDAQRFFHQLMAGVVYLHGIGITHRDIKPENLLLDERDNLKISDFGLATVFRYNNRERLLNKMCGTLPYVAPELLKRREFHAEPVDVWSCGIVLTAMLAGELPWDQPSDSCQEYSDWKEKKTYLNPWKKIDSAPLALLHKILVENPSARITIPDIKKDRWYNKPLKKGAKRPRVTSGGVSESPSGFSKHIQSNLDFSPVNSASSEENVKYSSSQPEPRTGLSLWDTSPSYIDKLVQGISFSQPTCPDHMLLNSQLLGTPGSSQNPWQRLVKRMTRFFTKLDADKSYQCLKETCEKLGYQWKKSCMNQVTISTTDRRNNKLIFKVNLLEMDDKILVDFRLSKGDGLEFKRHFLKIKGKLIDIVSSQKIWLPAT
Chain of Luciferin 4-monooxygenase (P08659 whole entry): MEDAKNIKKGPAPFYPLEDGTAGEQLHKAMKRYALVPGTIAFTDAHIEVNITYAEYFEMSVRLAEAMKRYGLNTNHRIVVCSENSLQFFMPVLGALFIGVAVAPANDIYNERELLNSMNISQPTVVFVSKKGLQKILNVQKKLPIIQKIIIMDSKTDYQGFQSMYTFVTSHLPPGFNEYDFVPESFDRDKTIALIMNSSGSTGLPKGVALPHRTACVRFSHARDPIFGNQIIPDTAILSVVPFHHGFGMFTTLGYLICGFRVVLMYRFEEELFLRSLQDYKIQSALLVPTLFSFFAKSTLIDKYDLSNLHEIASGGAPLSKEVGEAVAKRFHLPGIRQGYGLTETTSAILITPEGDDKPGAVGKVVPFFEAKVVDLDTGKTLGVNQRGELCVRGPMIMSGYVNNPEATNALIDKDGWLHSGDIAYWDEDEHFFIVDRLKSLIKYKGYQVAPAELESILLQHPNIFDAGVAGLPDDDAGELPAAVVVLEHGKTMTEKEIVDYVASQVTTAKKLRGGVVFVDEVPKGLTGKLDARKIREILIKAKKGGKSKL
Chain of Melanin-concentrating hormone receptor 1 (Q99705 whole entry): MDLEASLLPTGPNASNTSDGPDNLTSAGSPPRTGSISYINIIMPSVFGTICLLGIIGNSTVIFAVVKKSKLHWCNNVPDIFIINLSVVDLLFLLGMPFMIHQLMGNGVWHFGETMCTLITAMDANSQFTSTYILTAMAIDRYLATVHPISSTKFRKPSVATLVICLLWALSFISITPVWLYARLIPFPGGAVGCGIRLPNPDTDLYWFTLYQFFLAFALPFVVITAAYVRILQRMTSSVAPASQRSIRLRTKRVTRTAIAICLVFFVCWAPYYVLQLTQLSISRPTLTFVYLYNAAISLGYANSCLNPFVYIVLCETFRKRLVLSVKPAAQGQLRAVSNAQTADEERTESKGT
Chain of LIM domain kinase 1 (P53667 whole entry, the tested form may be a part): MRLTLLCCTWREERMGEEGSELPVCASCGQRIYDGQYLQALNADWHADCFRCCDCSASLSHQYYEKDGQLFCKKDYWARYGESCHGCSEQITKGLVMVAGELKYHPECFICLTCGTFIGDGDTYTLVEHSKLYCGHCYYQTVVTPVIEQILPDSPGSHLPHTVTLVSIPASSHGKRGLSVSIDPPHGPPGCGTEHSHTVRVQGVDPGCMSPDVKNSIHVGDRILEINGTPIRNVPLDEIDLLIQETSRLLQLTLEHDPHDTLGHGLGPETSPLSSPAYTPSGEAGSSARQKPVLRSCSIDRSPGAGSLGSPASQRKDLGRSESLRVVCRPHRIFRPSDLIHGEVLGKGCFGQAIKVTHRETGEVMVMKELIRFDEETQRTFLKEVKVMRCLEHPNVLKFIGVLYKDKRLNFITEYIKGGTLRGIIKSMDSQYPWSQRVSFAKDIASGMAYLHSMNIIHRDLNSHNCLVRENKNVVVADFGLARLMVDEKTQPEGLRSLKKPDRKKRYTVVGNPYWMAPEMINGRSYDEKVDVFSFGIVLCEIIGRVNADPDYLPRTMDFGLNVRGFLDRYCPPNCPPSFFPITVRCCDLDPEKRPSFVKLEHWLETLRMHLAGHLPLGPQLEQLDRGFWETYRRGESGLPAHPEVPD
Chain of Cyclin-dependent kinase 8 (P49336 whole entry): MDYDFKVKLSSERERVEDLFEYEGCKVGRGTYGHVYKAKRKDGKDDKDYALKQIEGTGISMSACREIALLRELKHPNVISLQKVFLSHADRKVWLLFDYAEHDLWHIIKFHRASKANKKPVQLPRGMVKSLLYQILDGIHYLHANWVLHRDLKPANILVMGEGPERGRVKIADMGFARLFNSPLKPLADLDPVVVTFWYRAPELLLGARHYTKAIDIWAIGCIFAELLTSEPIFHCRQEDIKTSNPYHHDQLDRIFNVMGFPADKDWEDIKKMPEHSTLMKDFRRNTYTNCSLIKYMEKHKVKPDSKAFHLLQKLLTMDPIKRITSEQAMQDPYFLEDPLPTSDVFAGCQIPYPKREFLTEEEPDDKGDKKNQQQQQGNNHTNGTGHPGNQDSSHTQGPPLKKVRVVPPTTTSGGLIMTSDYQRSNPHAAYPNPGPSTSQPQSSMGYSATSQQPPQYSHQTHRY

For the molecule `CCOc1cccc(Oc2c(Cl)cnn(Cc3cccc4ccccc34)c2=O)c1`, in [1], the IC50 is 18.8 µM (inactive).

Turning to `Cc1c(C(=O)Nc2nc3ccccc3s2)oc2ccccc12`, the IC50 (in assay [2]; at Caspase-3; in assay [3]; in assay [4]) was > 99 µM (inactive) each time.

Take `COc1cc(C2C(C#N)=C(N)Oc3cc(N)ccc32)cc(OC)c1OC` (stereo not drawn): in [5], the IC50 is > 80 µM (inactive). For the same molecule, in [6], the concentration giving a half-maximal response (EC50) is 13.5 µM (active).

As to `CC(Oc1ccccc1)C(=O)N(CCC1=CCCCC1)c1c(N)n(Cc2ccccc2)c(=O)[nH]c1=O` (stereo not drawn), the EC50 in assay [7] was > 112 µM (not active); in assay [8], > 112 µM (not active); in assay [6], 15 µM (active).

For `CCN(CC)S(=O)(=O)c1ccc(C(=O)Nc2nc3c(C)ccc(Cl)c3s2)cc1`, the IC50 (in [2]; on Caspase-3; in assay [3]; in [4]) was > 99 µM (inactive) in each case.

For `O=S(=O)(Nc1ccc2ccccc2c1O)c1ccc(F)cc1`, the Ki on LIM domain kinase 1 was 2.51 µM (active); in assay [9], 3.16 µM (active); in [10], 3.16 µM (active); in assay [11], 2.51 µM (active).
